Key:
Assay type in all cases: cell-based, Human
[1] = test system: eNOS (S1177); experiment: Western blot, phosphorylated eNOS; details: FIG. 6A
Method: Western blot was performed using a known method. Cells were lysed in a RIPA buffer (Sigma Aldrich) including 150 mM NaCl, 1.0% Nonidet-P 40, 0.5% sodium deoxycholate, 0.1% sodium dodecyl sulfate, 50 mM Tri (pH 8.0), a protease inhibitor cocktail and PhoSTOP (Roche Molecular Biochemicals, Basel, Switzerland).
A primary antibody used in the present experiment was purchased from Cell Signaling (Danvers, Mass., USA) and VE-cadherin, p-LKB1, and LKB1 were purchased from Santa Cruz (Cambridge, UK). A secondary antibody (anti-rabbit IgG or anti-mouse IgG, 1:2000) was purchased from Cell Signaling Technology.
Data in the images was quantified with National Institutes of Health (NIH) ImageJ 1.41q software.

[2] = test system: intracellular nitric oxide (NO) in HUVECs; experiment: Intracellular NO production analysis (DAF-FM probe); details: L-NMMA (10 μM) with NTS, FIG. 6B
Method: Nitric oxide (NO) levels were confirmed by measuring fluorescence changes in 4-amino-5-methylamino-2′,7′-difluorofluorescein diacetate (DAF-FMDA, Thermo Fisher, D23844, Eugene, Oreg., USA) due to oxidation, respectively. Cells were cultured with reagents according to the manufacturer's instructions. Changes in DAF-FM fluorescence were measured by flow cytometry (BD Biosciences) and a fluorescence microscope (EVOS FL Auto, Thermo Fisher) after 24 hours. NG-methyl-L-arginine acetate salt (L-NMMA, Sigma, M7033) was used to suppress the production of nitric oxide (NO).

[3] = test system: VE-cadherin; experiment: Immunocytochemical analysis, VE-cadherin; details: NTS+L-NMMA, FIG. 6G
Method: Immunocytochemical analysis was performed using a known method. The cells cultured according to Example 2-1 were additionally cultured on coverslips (Thermo Fisher Scientific, Rochester, N.Y., USA) and treated with NTS (60 sec/ml) or a vehicle control.
The coverslips were then treated with polyclonal rabbit anti-LC3B, p-FAK, and VE-Cadherin (1:200; Cell Signaling Technology, Danvers, Mass., USA), incubated for 2 hours, washed with PBS, and then incubated with an Alexa 488-labeled antibody for 1 hour.
Thereafter, after being washed three times with PBS, the slides were stained with Hoechst 33258 (Molecular Probe), and phalloidin (1:50; Molecular Probes, R415) was added thereto for 15 minutes to counterstain nuclei and F-actin. The stained coverslips were washed with PBS, mounted with Vectashield (Vector Laboratories, Inc., Burlingame, Calif., USA), and then analyzed using EVOS FL Auto (Thermo Fisher).

[4] = test system: HUVEC tube formation; experiment: Tube formation analysis on Matrigel; details: L-NMMA (10 μM) with NTS, FIG. 6C
Method: HUVEC cells were trypsinized and then seeded onto a 96-well plate (2×10^4/well) pre-coated with 40 μl (10 mg/ml) of growth factor-reduced Matrigel (BD Biosciences, Billerica, Mass.) in an EBM2 medium.
After incubation at 37° C. for 30 minutes, 1 hour, 3 hours, and 6 hours, viable cells were detected by staining with Calcein AM (Trevigen, Gaithersburg, Md.), and then a capillary-like structure was imaged using EVOS FL Auto (ThermoFisher). Data in the images was quantified with National Institutes of Health (NIH) ImageJ 1.41q software.

[5] = test system: MMP-2; experiment: Gelatin zymogram analysis; details: L-NMMA with NTS, FIG. 6F
Method: Matrix metalloproteases were analyzed using a known gelatin zymography method. The cells according to Example 2-1 were cultured in a 6-well plate (Corning Scientific, Rochester, N.Y., USA) and treated with NTS (60 sec/ml) or a vehicle control. Thereafter, the supernatant (100 μl) of each sample was mixed with 1 μl of 100 mM 4-aminophenylmercuric acetate (Sigma-Aldrich), and the sample was incubated at 37° C. for 1 hour. After each sample was placed in a sample buffer (excluding 2-mercaptoethanol) for 10 minutes, the samples were electrophoresed on an a 8% polyacrylamide gel containing 1% gelatin.
The gel was incubated at room temperature for 60 minutes in a regeneration buffer, and then incubated in 100 ml of a development buffer at 37° C. with gentle shaking. Thereafter, the gel was stained with Coomassie Brilliant Blue for 3 hours. After destaining with 400 ml of a destaining solution (methanol, 100 ml of acetic acid, 500 ml of distilled water), images were obtained using an image analyzer.

SMILES: CC(=O)O.CNC(=N)NCCC[C@H](N)C(=O)O [L-NMMA, NG-methyl-L-arginine acetate salt]
- p-eNOS phosphorylation by NTS ([1]; L-NMMA (10 μM) with NTS): significantly reduced
- phosphorylation of eNOS upregulated by NTS ([1]; L-NMMA, 1 mM): significantly attenuated
- intracellular nitric oxide by NTS [2]: significantly reduced
- NTS-induced reduction of VE-cadherin expression [3]: significantly attenuated
- tubular network formed by NTS [4]: significantly disrupted
- NTS-activated MMP2 [5]: significantly attenuated
